In paper PMC11866407, “Structure of Clostridium leptum carboxyspermidine decarboxylase and comparison to homologs prevalent within the human gut microbiome” (Acta Crystallographica Section F: Structural Biology …, 2025):

Biological target: T1, Clostridium leptum carboxyspermidine decarboxylase (ClCASDC) ([Clostridium] leptum, UniProt A7VSG2)
T1 construct: gene nspC; full length (376 residues), N-terminal His6 tag kept (pET-28b NdeI/XhoI), E. coli BL21 (DE3), codon-optimized; homodimer
T1 sequence (A7VSG2 1-376): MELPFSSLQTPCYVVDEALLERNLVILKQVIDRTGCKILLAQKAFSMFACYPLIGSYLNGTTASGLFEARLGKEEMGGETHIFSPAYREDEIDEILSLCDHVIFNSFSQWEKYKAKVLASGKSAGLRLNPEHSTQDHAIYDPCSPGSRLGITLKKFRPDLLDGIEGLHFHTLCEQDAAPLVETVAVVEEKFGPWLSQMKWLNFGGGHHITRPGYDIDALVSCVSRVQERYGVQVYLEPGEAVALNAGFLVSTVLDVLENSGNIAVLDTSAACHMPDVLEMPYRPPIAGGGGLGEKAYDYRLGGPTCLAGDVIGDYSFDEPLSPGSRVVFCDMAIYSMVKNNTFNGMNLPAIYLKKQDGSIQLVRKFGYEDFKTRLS
Experiment: X-ray crystal structure, […] Å
Assay type: binding
Settings: covalent; Schiff base (internal aldimine) with Lys43; pre-incubated with 100 µM PLP, 5 mM DTT; HEPES pH 6.8; both chains

Cc1ncc(COP(=O)(O)O)c(C=O)c1O [PLP, pyridoxal 5′-phosphate]
X-ray crystal structure, 1.41 Å: PLP forms a Schiff base with Lys43 in both chains
